pIC50: −log10 of the molar value.
Biological target: T1, RORc ligand binding domain (Homo sapiens, UniProt P51449)
T1 sequence (P51449 269-508 limits assumed): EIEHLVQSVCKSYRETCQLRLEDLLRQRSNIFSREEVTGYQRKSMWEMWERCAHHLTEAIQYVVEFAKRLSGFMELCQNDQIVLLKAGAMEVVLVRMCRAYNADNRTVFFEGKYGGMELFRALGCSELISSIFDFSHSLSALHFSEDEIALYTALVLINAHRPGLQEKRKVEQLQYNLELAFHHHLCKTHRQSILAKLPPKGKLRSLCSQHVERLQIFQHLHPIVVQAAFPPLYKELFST
Assay: In Vitro RORc Ligand Binding Assay
Conditions: RORc IC50, radioligand 25-[3H]hydroxycholesterol 6 nM; 0.6 ug/mL RORc receptor; 3 h at 25° C.

Row | Compound | pIC50
1 | CC1(C)[C@H]2CC[C@]1(c1cccc(-c3n[nH]c(=O)[nH]3)n1)c1nnc(-c3c(F)cccc3F)cc12 [Example 179, 3-(6-((5R,8S)-3-(2,6-difluorophenyl)-9,9-dimethyl-5,6,7,8-tetrahydro-5,8-methanocinnolin-8-yl)pyridin-2-yl)-1H-1,2,4-triazol-5(4H)-one] | 7.82
2 | CC1(C)[C@H]2CC[C@]1(c1ccnc(-c3nnc(CO)[nH]3)n1)c1nnc(-c3c(F)cccc3F)cc12 [Example 180] | 7.55
3 | CC1(C)[C@H]2CC[C@]1(c1ccnc(-n3ccnc3)n1)c1nnc(-c3c(F)cccc3F)cc12 [Example 181] | 8.43
4 | CC1(C)[C@H]2CC[C@]1(c1ccnc(-n3cncn3)n1)c1nnc(-c3c(F)cccc3F)cc12 [Example 182] | 8.38
5 | CNS(=O)(=O)c1nccc([C@@]23CC[C@@H](c4cc(-c5c(F)cccc5F)nnc42)C3(C)C)n1 [Example 183] | 7.81
6 | CC1(C)[C@H]2CC[C@]1(c1cncc(-c3cnco3)n1)c1nnc(-c3c(F)cccc3F)cc12 [Example 184, 5-(6-((5R,8S)-3-(2,6-difluorophenyl)-9,9-dimethyl-5,6,7,8-tetrahydro-5,8-methanocinnolin-8-yl)pyrazin-2-yl)oxazole] | 8.48
7 | CC1(C)[C@H]2CC[C@]1(c1cncc(=O)[nH]1)c1nnc(-c3c(F)cccc3F)cc12 [Example 185, 6-((5R,8S)-3-(2,6-difluorophenyl)-9,9-dimethyl-5,6,7,8-tetrahydro-5,8-methanocinnolin-8-yl)pyrazin-2(1H)-one] | 7.52
8 | COC(=O)c1ncc(Br)c([C@@]23CC[C@@H](c4cc(-c5c(F)cccc5F)nnc42)C3(C)C)n1 [Example 187] | 7.58
9 | CC1(C)[C@H]2CC[C@]1(c1ccnc(-n3ccnn3)n1)c1nnc(-c3c(F)cccc3F)cc12 [Example 188] | 8.12
10 | CC1(C)[C@H]2CC[C@]1(c1ccnc(-n3nccn3)n1)c1nnc(-c3c(F)cccc3F)cc12 [Example 189] | 7.83
11 | CC1(C)[C@H]2CC[C@]1(c1ccnc(S(=O)(=O)NCCO)n1)c1nnc(-c3c(F)cccc3F)cc12 [Example 190] | 7.87
12 | CC1(C)[C@H]2CC[C@]1(c1cccc(S(=O)(=O)NCC3(O)COC3)n1)c1nnc(-c3c(F)cccc3F)cc12 [Example 191, 6-((5R,8S)-3-(2,6-difluorophenyl)-9,9-dimethyl-5,6,7,8-tetrahydro-5,8-methanocinnolin-8-yl)-N-((3-hydroxyoxetan-3-yl)methyl)pyridine-2-sulfonamide] | 7.61
13 | CC1(C)[C@H]2CC[C@]1(c1ccnc(C#N)c1C#N)c1nnc(-c3c(F)cccc3F)cc12 [Example 192, 4-((5R,8S)-3-(2,6-difluorophenyl)-9,9-dimethyl-5,6,7,8-tetrahydro-5,8-methanocinnolin-8-yl)pyridine-2,3-dicarbonitrile] | 6.91
14 | CC1(C)[C@H]2CC[C@]1(c1nc(C(=O)NCCO)ncc1Br)c1nnc(-c3c(F)cccc3F)cc12 [Example 193] | 7.24
15 | CC1(C)[C@H]2CC[C@]1(c1cncc(C(=O)NCCO)c1)c1nnc(-c3c(F)cccc3F)cc12 [Example 194, 5-((5R,8S)-3-(2,6-difluorophenyl)-9,9-dimethyl-5,6,7,8-tetrahydro-5,8-methanocinnolin-8-yl)-N-(2-hydroxyethyl)nicotinamide] | 7.62
16 | CC1(C)[C@H]2CC[C@]1(c1cncc(-n3cncn3)n1)c1nnc(-c3c(F)cccc3F)cc12 [Example 195] | 8.20
17 | CC(C)(O)c1coc(-c2cncc([C@@]34CC[C@@H](c5cc(-c6c(F)cccc6F)nnc53)C4(C)C)n2)n1 [Example 196, 2-(2-(6-((5R,8S)-3-(2,6-difluorophenyl)-9,9-diimethyl-5,6,7,8-tetrahydro-5,8-methanocinnolin-8-yl)pyrazin-2-yl)oxazol-4-yl)propan-2-ol] | 8.19
18 | CC1(C)[C@H]2CC[C@]1(c1cncc(C(=O)N[C@H]3C[C@](C)(O)C3)n1)c1nnc(-c3c(F)cccc3F)cc12 [Example 197, 6-((5R,8S)-3-(2,6-difluorophenyl)-9,9-dimethyl-5,6,7,8-tetrahydro-5,8-methanocinnolin-8-yl)-N-((1r,3S)-3-hydroxy-3-methylcyclobutyl)pyrazine-2-carboxamide] | 7.85
19 | CC(C)(O)CNS(=O)(=O)c1cccc([C@@]23CC[C@@H](c4cc(-c5c(F)cccc5F)nnc42)C3(C)C)n1 [Example 198, 6-((5R,8S)-3-(2,6-difluorophenyl)-9,9-dimethyl-5,6,7,8-tetrahydro-5,8-methanocinnolin-8-yl)-N-(2-hydroxy-2-methylpropyl)pyridine-2-sulfonamide] | 7.58
20 | CC1(C)[C@H]2CC[C@]1(c1cccc(S(=O)(=O)NC3(CO)COC3)n1)c1nnc(-c3c(F)cccc3F)cc12 [Example 199, 6-((5R,8S)-3-(2,6-difluorophenyl)-9,9-dimethyl-5,6,7,8-tetrahydro-5,8-methanocinnolin-8-yl)-N-(3-(hydroxymethyl)oxetan-3-yl)pyridine-2-sulfonamide] | 8.03
21 | C[C@@H](O)CNS(=O)(=O)c1cccc([C@@]23CC[C@@H](c4cc(-c5c(F)cccc5F)nnc42)C3(C)C)n1 [Example 200, 6-((5R,8S)-3-(2,6-difluorophenyl)-9,9-dimethyl-5,6,7,8-tetrahydro-5,8-methanocinnolin-8-yl)-N-((R)-2-hydroxypropyl)pyridine-2-sulfonamide] | 7.93

Other lines, results leading:

Row | pIC50 | Compound
22 | 7.48 | C[C@H](O)CNS(=O)(=O)c1cccc([C@@]23CC[C@@H](c4cc(-c5c(F)cccc5F)nnc42)C3(C)C)n1 [Example 201, 6-((5R,8S)-3-(2,6-difluorophenyl)-9,9-dimethyl-5,6,7,8-tetrahydro-5,8-methanocinnolin-8-yl)-N-((S)-2-hydroxypropyl)pyridine-2-sulfonamide]
23 | 7.97 | CC1(C)[C@H]2CC[C@]1(c1cncc(-n3cc[nH]c3=O)n1)c1nnc(-c3c(F)cccc3F)cc12 [Example 202, 1-(6-((5R,8S)-3-(2,6-difluorophenyl)-9,9-dimethyl-5,6,7,8-tetrahydro-5,8-methanocinnolin-8-yl)pyrazin-2-yl)-1H-imidazol-2(3H)-one]
24 | 7.61 | CC(C)(O)c1nnc(-c2cncc([C@@]34CC[C@@H](c5cc(-c6c(F)cccc6F)nnc53)C4(C)C)n2)[nH]1 [Example 203, 2-(5-(6-((5R,8S)-3-(2,6-difluorophenyl)-9,9-dimethyl-5,6,7,8-tetrahydro-5,8-methanocinnolin-8-yl)pyrazin-2-yl)-4H-1,2,4-triazol-3-yl)propan-2-ol]
25 | 7.13 | CC1(C)[C@H]2CC[C@]1(c1cncc(NC(=O)NCCO)n1)c1nnc(-c3c(F)cccc3F)cc12 [Example 204, 1-(6-((5R,8S)-3-(2,6-difluorophenyl)-9,9-dimethyl-5,6,7,8-tetrahydro-5,8-methanocinnolin-8-yl)pyrazin-2-yl)-3-(2-hydroxyethyl)urea]
26 | 7.98 | CC1(C)[C@H]2CC[C@]1(c1cncc(-c3cn[nH]c3)n1)c1nnc(-c3c(F)cccc3F)cc12 [Example 205]
27 | 8.17 | CC1(C)[C@H]2CC[C@]1(c1cncc(-c3cnc(CO)o3)n1)c1nnc(-c3c(F)cccc3F)cc12 [Example 206, (5-(6-((5R,8S)-3-(2,6-difluorophenyl)-9,9-dimethyl-5,6,7,8-tetrahydro-5,8-methanocinnolin-8-yl)pyrazin-2-yl)oxazol-2-yl)methanol]
28 | 8.42 | CC1(C)[C@H]2CC[C@]1(c1cccc(-c3cnc(CO)o3)n1)c1nnc(-c3c(F)cccc3F)cc12 [Example 207, (5-(6-((5R,8S)-3-(2,6-difluorophenyl)-9,9-dimethyl-5,6,7,8-tetrahydro-5,8-methanocinnolin-8-yl)pyridin-2-yl)oxazol-2-yl)methanol]
29 | 8.44 | Cc1cn(-c2nccc([C@@]34CC[C@@H](c5cc(-c6c(F)cccc6F)nnc53)C4(C)C)n2)cn1 [Example 208]
30 | 7.82 | Cc1ncc(-c2cnc(C)c([C@@]34CC[C@@H](c5cc(-c6c(F)cccc6F)nnc53)C4(C)C)n2)o1 [Example 209, 5-(6-((5R,8S)-3-(2,6-difluorophenyl)-9,9-dimethyl-5,6,7,8-tetrahydro-5,8-methanocinnolin-8-yl)-5-methylpyrazin-2-yl)-2-methyloxazole]
31 | 6.94 | CC1(C)[C@H]2CC[C@]1(c1cc(C#N)nc(C#N)c1)c1nnc(-c3c(F)cccc3F)cc12 [Example 210, 4-((5R,8S)-3-(2,6-difluorophenyl)-9,9-dimethyl-5,6,7,8-tetrahydro-5,8-methanocinnolin-8-yl)pyridine-2,6-dicarbonitrile]
32 | 8.06 | CC1(C)[C@H]2CC[C@]1(c1ccnc(-n3cccn3)n1)c1nnc(-c3c(F)cccc3F)cc12 [Example 211]
33 | 7.55 | Cc1ncn(-c2nccc([C@@]34CC[C@@H](c5cc(-c6c(F)cccc6F)nnc53)C4(C)C)n2)n1 [Example 212]
34 | 8.21 | CC1(C)[C@H]2CC[C@]1(c1cccc(-c3ccn[nH]3)n1)c1nnc(-c3c(F)cccc3F)cc12 [Example 213]
35 | 7.52 | CC(C)(O)c1nnc(-c2cccc([C@@]34CC[C@@H](c5cc(-c6c(F)cccc6F)nnc53)C4(C)C)n2)[nH]1 [Example 214, 2-(5-(6-((5R,8S)-3-(2,6-difluorophenyl)-9,9-dimethyl-5,6,7,8-tetrahydro-5,8-methanocinnolin-8-yl)pyridin-2-yl)-4H-1,2,4-triazol-3-yl)propan-2-ol]
36 | 7.55 | CC1(C)[C@H]2CC[C@]1(c1ccnc(-n3cc(CCO)cn3)n1)c1nnc(-c3c(F)cccc3F)cc12 [Example 215]
37 | 7.90 | CC1(C)[C@H]2CC[C@]1(c1cccc(-n3cnnc3)n1)c1nnc(-c3c(F)cccc3F)cc12 [Example 216]
38 | 8.13 | CC1(C)[C@H]2CC[C@]1(c1cncc(F)c1)c1nnc(-c3c(F)cccc3F)cc12 [Example 217, (5R,8S)-3-(2,6-difluorophenyl)-8-(5-fluoropyridin-3-yl)-9,9-dimethyl-5,6,7,8-tetrahydro-5,8-methanocinnoline]

— patent US10487068B2, “Pyridazine derivatives as RORc modulators” (Genentech, Inc., priority 2015, dated 2019)
